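Tested at 5 concentrations; 48 h exposure; 96-well plates; endpoints linearly interpolated, else capped at highest concentration. GI50 = concentration required for 50% inhibition of growth.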 Calls of active or inactive are those of the source. No stated cut-off is given here; in the data, active = GI50 up to about 1.1 µM and inactive = higher.
Legend:
Assay in all cases: inhibition of tumour cell growth, NCI panel, 48 h
Hs-578T = tested on: Hs-578T
MDA-N = tested on: MDA-N
TK-10 = tested on: TK-10
SF-268 = tested on: SF-268
CCRF-CEM = tested on: CCRF-CEM
SNB-19 = tested on: SNB-19
OVCAR-5 = tested on: OVCAR-5
IGROV-1 = tested on: IGROV-1
KM12 = tested on: KM12
ACHN = tested on: ACHN
HOP-62 = tested on: HOP-62
NCI/ADR-RES = tested on: NCI/ADR-RES
A549 = tested on: A549
UACC-257 = tested on: UACC-257
SK-MEL-28 = tested on: SK-MEL-28
OVCAR-3 = tested on: OVCAR-3
OVCAR-4 = tested on: OVCAR-4
MDA-MB-435 = tested on: MDA-MB-435
HCT-15 = tested on: HCT-15
M14 = tested on: M14
MOLT-4 = tested on: MOLT-4
PC-3 = tested on: PC-3
UO-31 = tested on: UO-31
HCT-116 = tested on: HCT-116
K562 = tested on: K562
MDA-MB-231 = tested on: MDA-MB-231
A498 = tested on: A498
SK-OV-3 = tested on: SK-OV-3
U-251 = tested on: U-251
SW-620 = tested on: SW-620
RXF 393 = tested on: RXF 393
CAKI-1 = tested on: CAKI-1
Malme-3M = tested on: Malme-3M
RPMI-8226 = tested on: RPMI-8226
HT-29 = tested on: HT-29
786-0 = tested on: 786-0
UACC-62 = tested on: UACC-62
T47D = tested on: T47D
SR = tested on: SR
HL-60 = tested on: HL-60
COLO 205 = tested on: COLO 205
SF-295 = tested on: SF-295
LOX IMVI = tested on: LOX IMVI
HCC 2998 = tested on: HCC 2998
NCI-H23 = tested on: NCI-H23
HOP-92 = tested on: HOP-92
SF-539 = tested on: SF-539
NCI-H460 = tested on: NCI-H460
SK-MEL-5 = tested on: SK-MEL-5
NCI-H226 = tested on: NCI-H226
DU-145 = tested on: DU-145
SK-MEL-2 = tested on: SK-MEL-2
SN12C = tested on: SN12C
BT-549 = tested on: BT-549
OVCAR-8 = tested on: OVCAR-8
EKVX = tested on: EKVX
MCF7 = tested on: MCF7
NCI-H522 = tested on: NCI-H522
SNB-75 = tested on: SNB-75

With `COC(=O)C1C(=O)C=CN([C@H](C)c2ccccc2)[C@@H]1Cc1ccc(OC)c(OCc2ccccc2)c1I` (stereo partly specified) the GI50 (Hs-578T) was 17.5 µM (inactive), the GI50 (MDA-N) was 15.6 µM (inactive) and the GI50 (TK-10) was 23.7 µM (inactive). For the same compound, the GI50 (SF-268) was 14.9 µM (inactive), the GI50 (CCRF-CEM) was 24.5 µM (inactive) and the GI50 (SNB-19) was 15 µM (inactive). For the same compound, the GI50 (OVCAR-5) was 27.4 µM (inactive), the GI50 (IGROV-1) was 10.2 µM (inactive) and the GI50 (KM12) was 19.2 µM (inactive). The GI50 (ACHN) was 23.2 µM (inactive), the GI50 (HOP-62) was 20.4 µM (inactive) and the GI50 (NCI/ADR-RES) was 11.1 µM (inactive). For the same compound, the GI50 (A549) was 15.6 µM (inactive), the GI50 (UACC-257) was 18.2 µM (inactive) and the GI50 (SK-MEL-28) was 40.6 µM (inactive). For the same compound, the GI50 (OVCAR-3) was 14.6 µM (inactive), the GI50 (OVCAR-4) was 8.83 µM (inactive) and the GI50 (MDA-MB-435) was 17 µM (inactive). For the same compound, the GI50 (HCT-15) was 7.1 µM, the GI50 (M14) was 14.5 µM (inactive) and the GI50 (MOLT-4) was 8.79 µM (inactive). The GI50 (PC-3) was 13.8 µM (inactive), the GI50 (UO-31) was 12 µM (inactive) and the GI50 (HCT-116) was 11.7 µM (inactive). For the same compound, the GI50 (K562) was 18.2 µM (inactive), the GI50 (MDA-MB-231) was 18.3 µM (inactive) and the GI50 (A498) was 14.5 µM (inactive). For the same compound, the GI50 (SK-OV-3) was 34 µM (inactive), the GI50 (U-251) was 17.5 µM (inactive) and the GI50 (SW-620) was 27.7 µM (inactive). The GI50 (RXF 393) was 11.8 µM (inactive), the GI50 (CAKI-1) was 22 µM (inactive) and the GI50 (Malme-3M) was 24.4 µM (inactive). For the same compound, the GI50 (RPMI-8226) was 14.9 µM (inactive), the GI50 (HT-29) was 10 µM (inactive) and the GI50 (786-0) was 16.4 µM (inactive). The GI50 (UACC-62) was 12.3 µM (inactive), the GI50 (T47D) was 13.8 µM (inactive) and the GI50 (SR) was 3.14 µM (inactive). The GI50 (HL-60) was 17.3 µM (inactive), the GI50 (COLO 205) was 14.9 µM (inactive) and the GI50 (SF-295) was 16.9 µM (inactive). The GI50 (LOX IMVI) was 14.5 µM (inactive), the GI50 (HCC 2998) was 14.3 µM (inactive) and the GI50 (NCI-H23) was 17 µM (inactive). The GI50 (HOP-92) was 3.3 µM (inactive), the GI50 (SF-539) was 19.4 µM (inactive) and the GI50 (NCI-H460) was 15.5 µM (inactive). The GI50 (SK-MEL-5) was 13.5 µM (inactive), the GI50 (NCI-H226) was 15.8 µM (inactive) and the GI50 (DU-145) was 18.2 µM (inactive). For the same compound, the GI50 (SK-MEL-2) was 18.9 µM (inactive), the GI50 (SN12C) was 14.3 µM (inactive) and the GI50 (BT-549) was 18.3 µM (inactive). For the same compound, the GI50 (OVCAR-8) was 18.3 µM (inactive), the GI50 (EKVX) was 23.6 µM (inactive) and the GI50 (MCF7) was 17.6 µM (inactive). The GI50 (NCI-H522) was 13.6 µM (inactive).
With `Nc1ccc2c(c1)C(=O)c1ccc(F)cc1-2` the GI50 (Hs-578T) was > 100 µM (inactive), the GI50 (MDA-N) was > 100 µM (inactive) and the GI50 (TK-10) was > 100 µM (inactive). The GI50 (SF-268) was > 100 µM (inactive), the GI50 (CCRF-CEM) was > 100 µM (inactive) and the GI50 (SNB-19) was > 100 µM (inactive). For the same compound, the GI50 (OVCAR-5) was > 100 µM (inactive), the GI50 (IGROV-1) was > 100 µM (inactive) and the GI50 (KM12) was > 100 µM (inactive). The GI50 (ACHN) was > 100 µM (inactive), the GI50 (HOP-62) was > 100 µM (inactive) and the GI50 (NCI/ADR-RES) was > 100 µM (inactive). The GI50 (A549) was > 100 µM (inactive), the GI50 (UACC-257) was > 100 µM (inactive) and the GI50 (SK-MEL-28) was > 100 µM (inactive). For the same compound, the GI50 (OVCAR-3) was > 100 µM (inactive), the GI50 (OVCAR-4) was > 100 µM (inactive) and the GI50 (MDA-MB-435) was > 100 µM (inactive). The GI50 (HCT-15) was over 100 µM, the GI50 (M14) was > 100 µM (inactive) and the GI50 (MOLT-4) was 57.8 µM (inactive). For the same compound, the GI50 (PC-3) was > 100 µM (inactive), the GI50 (UO-31) was > 100 µM (inactive) and the GI50 (HCT-116) was 88.5 µM (inactive). For the same compound, the GI50 (K562) was > 100 µM (inactive), the GI50 (MDA-MB-231) was > 100 µM (inactive) and the GI50 (A498) was > 100 µM (inactive). The GI50 (SK-OV-3) was > 100 µM (inactive), the GI50 (U-251) was 40.8 µM (inactive) and the GI50 (SW-620) was > 100 µM (inactive). For the same compound, the GI50 (RXF 393) was 44.4 µM (inactive), the GI50 (CAKI-1) was > 100 µM (inactive) and the GI50 (SNB-75) was > 100 µM (inactive). For the same compound, the GI50 (RPMI-8226) was > 100 µM (inactive), the GI50 (HT-29) was > 100 µM (inactive) and the GI50 (786-0) was > 100 µM (inactive). The GI50 (UACC-62) was > 100 µM (inactive), the GI50 (T47D) was > 100 µM (inactive) and the GI50 (SR) was 87.1 µM (inactive). The GI50 (HL-60) was > 100 µM (inactive), the GI50 (COLO 205) was > 100 µM (inactive) and the GI50 (SF-295) was > 100 µM (inactive). The GI50 (LOX IMVI) was > 100 µM (inactive), the GI50 (HCC 2998) was > 100 µM (inactive) and the GI50 (NCI-H23) was > 100 µM (inactive). The GI50 (HOP-92) was > 100 µM (inactive), the GI50 (SF-539) was > 100 µM (inactive) and the GI50 (NCI-H460) was > 100 µM (inactive). The GI50 (SK-MEL-5) was > 100 µM (inactive), the GI50 (NCI-H226) was > 100 µM (inactive) and the GI50 (DU-145) was > 100 µM (inactive). For the same compound, the GI50 (SK-MEL-2) was > 100 µM (inactive), the GI50 (SN12C) was > 100 µM (inactive) and the GI50 (BT-549) was > 100 µM (inactive). The GI50 (OVCAR-8) was > 100 µM (inactive), the GI50 (EKVX) was 72.4 µM (inactive) and the GI50 (MCF7) was > 100 µM (inactive). The GI50 (NCI-H522) was > 100 µM (inactive).
